Experimental data reported in patent US4029801A, “Pharmaceutical compositions and methods of treating hypertension” (priority 1970, dated 1977).

Legend:
[1] = system: blood pressure; assay: Tests for action on the cardiovascular system: hypotensive activity (activity in method 1, rats or cats, or method 2), reported in words; assay type: in vivo, rat, cat; conditions: standard test procedure, result in words
Protocol: Tests for action on the cardiovascular system were conducted according to one of the following procedures:
Cats were anaesthetised with pentobarbitone sodium (30 mg/kg) and the cephalic vein, femoral and carotid arteries and trachea were cannulated. The carotid cannula was introduced into the left ventricle and the femoral cannula into the aorta. Blood pressure and heart rate were recorded from the aortic cannula and left ventricular pressure from the carotid cannula. The test compunds were administered intravenously (0.1-25.6 mg/kg).
Method 2 (hypertensive rats)
Male or female rats are rendered hypertensive by applying a figure of 8 ligature around one kidney and contralateral nephrectomy. Blood pressure stabilises at a hypertensive level after 6 weeks. Systolic pressure is measured indirectly using a Decker Caudal Plethysmograph A control group of rats is run with each group treated with drug. Each group usually consists of six rats. Drugs are usually administered by the IP or oral routes. Pressures are read prior to drug administration and at two and 24 hours thereafter.

[2] = system: blood pressure and heart rate; assay: Method 1 (rat): hypotensive activity in anaesthetised rats, i.v.; conditions: Rattus norvegicus, iv, 0.25 h, read-out: Hypotensive Activity
Protocol: Rats were anaesthetised with pentobarbitone sodium (60 mg/kg) and the jugular vein, trachea and carotid artery were cannulated. […] A decrease in heart rate of more than 30% from control values was considered to be significant bradycardia.

Row | SMILES | hypotensive activity [1] | minimal effective dose [2] [mg/kg]
1 | O=C(NC1CCN(CCCC(O)c2ccccc2)CC1)c1ccccc1 (single isomer, unassigned; (+)) [Example 86, (+)-4-Benzamido-1-(4-phenyl-4-hydroxybutyl)piperidine] | hypotensive activity | 1.6 to 3.2
2 | O=C(NC1CCN(CCC2CCCCC2)CC1)c1ccccc1 [Example 1, 1-[2-(Cyclohexyl)ethyl]-4-benzamidopiperidine] | good hypotensive activity | 1.6 to 3.2
3 | COc1ccc(CCN2CCC(NC(=O)c3ccccc3)CC2)cc1OC [Example 5, 1-[2-(3,4-Dimethoxyphenyl)ethyl]-4-benzamidopiperidine] |  | < 30
4 | COc1ccc(CCN2CCC(NC(=O)c3ccccc3Cl)CC2)cc1OC [Example 6, 1-[2-(3,4-Dimethoxyphenyl)ethyl]-4-(2-chlorobenzamido)-piperidine] | hypotensive activity | 25.6
5 | COc1cc(CCN2CCC(NC(=O)c3ccccc3)CC2)cc(OC)c1OC [Example 8, 1-[2-(3,4,5-Trimethoxyphenyl)ethyl]-4-benzamidopiperidine] |  | 6.4 to 12.8
6 | O=C(CN1CCC(NC(=O)c2ccccc2)CC1)c1ccc(O)c(O)c1 [Example 11, 1-[2-(3,4-Dihydroxyphenyl)-2-oxoethyl]-4-benzamidopiperidine] | marked hypotensive activity | 1.6 to 3.2
7 | O=C(NC1=CCN(CCc2ccccc2)CC1)c1ccccc1 [Example 26, 1-Phenethyl-4-benzamido-1,2,5,6-tetrahydropyridine] | hypotensive activity | 
8 | O=C(NC1CCN(Cc2ccccc2)CC1)c1ccccc1 [Example 30, 1-Benzyl-4-benzamidopiperidine] |  | 25.6
9 | Cc1ccc(C(=O)NC2CCN(Cc3ccccc3)CC2)cc1 [Example 32, 1-Benzyl-4-(p-methylbenzamido)piperidine] |  | < 30
10 | O=C(NC1CCN(CCc2ccccc2[N+](=O)[O-])CC1)c1ccccc1 [Example 33, 1-[2-(o-Nitrophenyl)ethyl]-4-benzamido-piperidine] | hypotensive activity | 6.4 to 12.8
11 | Cc1ccc(CCN2CCC(NC(=O)c3ccccc3)CC2)cc1C [Example 41, 1-[2-(3,4-Dimethylphenyl)ethyl]-4-benzamidopiperidine] | hypotensive activity | 6.4 to 12.8
12 | COc1ccc(CCN2CCC(NC(=O)c3ccccc3)CC2)cc1 [Example 49, 4-Benzamido-1-[2-(p-methoxyphenyl)ethyl]piperidine] | hypotensive activity | 6.4 to 12.8
13 | O=C(CCCN1CCC(NC(=O)c2ccccc2)CC1)Nc1ccccc1 [Example 50, N-Phenyl-4-(p-benzamidopiperid-1-yl)butyramide] | hypotensive activity | 6.4 to 12.8
14 | O=C(NC1CCN(CCCC(O)c2ccccc2)CC1)c1ccccc1 (stereo not shown) [Example 53, 4-Benzamido-1-(4-phenyl-4-hydroxybutyl)piperidine] | hypotensive activity | 6.4 to 12.8
15 | O=C(NC1CCN(CCCOc2cccc3ccccc23)CC1)c1ccccc1 [Example 55, 1-[3-(1-Naphthyloxy)-propyl]-4-benzamidopiperidine] | marked hypotensive activity | 1.6 to 3.2
16 | O=C(CN1CCC(NC(=O)c2ccccc2)CC1)c1ccc2c(c1)CCCC2 [Example 56, 1-[2-(1,2,3,4-Tetrahydro-6-napthyl)-2-oxoethyl]-4-benzamidopiperidine] | hypotensive activity | 6.4 to 12.8

Row | SMILES | hypotensive activity [1] | minimal effective dose [2] [mg/kg]
17 | O=C(NC1CCN(CC(O)c2ccc3c(c2)CCCC3)CC1)c1ccccc1 (stereo not shown) [Example 57, 1-[2-(1,2,3,4-Tetrahydro-6-naphthyl)-2-hydroxyethyl]-4-benzamido-piperidine] | hypotensive activity | 1.6 to 3.2
18 | Cl.O=C(NC1CCN(CCc2ccccc2)CC1)c1ccccc1 [Example 59, 1-Phenethyl-4-benzamidopiperidine hydrochloride] | hypotensive activity | 
19 | CC(C(=O)c1ccc(O)cc1)N1CCC(NC(=O)c2ccccc2)CC1 (stereo not shown) [Example 64, 1-[1-Methyl-2-(4-hydroxy)phenyl-2-oxoethyl]-4-benzamidopiperidine] |  | < 30
20 | CC(C(O)c1ccc(O)cc1)N1CCC(NC(=O)c2ccccc2)CC1 (stereo not shown) [Example 65, 1-[1-Methyl-2-(4-hydroxy)phenyl-2-hydroxyethyl]-4-benzamidopiperidine] | hypotensive activity | 25.6
21 | Cc1cc2c(cc1C(=O)CN1CCC(NC(=O)c3ccccc3)CC1)C(C)(C)CC(C)C2(C)C (stereo not shown) [Example 66, 7-(4-Benzamidopiperidinoacetyl)-1,1,3,4,4,6-hexamethyl-1,2,3,4-tetrahydronaphthalene] | hypotensive activity | 6.4 to 12.8
22 | Cc1cc2c(cc1C(O)CN1CCC(NC(=O)c3ccccc3)CC1)C(C)(C)CC(C)C2(C)C (stereo not shown) [Example 67, 7-[2-(4-Benzamidopiperid-1-yl)-1-hydroxyethyl]-1,1,3,4,4,6-Hexamethyl-1,2,3,4-tetrahydronaphthalene] | hypotensive activity | 
23 | COc1ccccc1OCCN1CCC(NC(=O)c2ccccc2)CC1 [Example 68, 1-[2-(2-Methoxyphenoxy)ethyl]-4-benzamidopiperidine] | hypotensive activity | 6.4 to 12.8
24 | O=C(CCCN1CCC(NC(=O)c2ccccc2)CC1)c1ccc(Br)cc1 [Example 71, 4-Benzamido-1-[4-(4-bromophenyl)-4-oxobutyl]piperidine] |  | 25.6
25 | O=C(CCCN1CCC(NC(=O)c2ccc(Cl)cc2)CC1)c1ccccc1 [Example 76, 4-(4-Chlorobenzamido)-1-(4-phenyl-4-oxobutyl)piperidine] | hypotensive activity | 6.4 to 12.8
26 | COc1ccc(C(=O)CCCN2CCC(NC(=O)c3ccccc3)CC2)cc1 [Example 77, 4-Benzamido-1-[4-(4-methoxyphenyl)-4-oxobutyl]piperidine] |  | 6.4 to 12.8
27 | CC(Cc1ccccc1)N1CCC(NC(=O)c2ccccc2)CC1 (stereo not shown) [Example 78, 4-Benzamido-1-(1-phenylprop-2-yl)piperidine] | marked hypotensive activity | 6.4 to 12.8
28 | O=C(CCCN1CCC(NC(=O)c2ccccc2)CC1)c1ccc2ccccc2c1 [Example 80, 1-[4-(2-Naphthyl)-4-oxobutyl]-4-benzamidopiperidine] | hypotensive activity | 1.6 to 3.2
29 | C[N+]1(CCCC(=O)c2ccccc2)CCC(NC(=O)c2ccccc2)CC1 (stereo not shown) [Example 82, 4-Benzamido-1-methyl-1-(4-phenyl-4-oxobutyl)piperidinium iodide] | hypotensive activity | 
30 | O=C(NC1CCN(CCc2ccc3ccccc3n2)CC1)c1ccccc1 [Example 95, 1-[2-(2-Quinolyl)ethyl]-4-benzamidopiperidine] | marked hypotensive activity | 
31 | O=C(NC1CCN(CC(O)c2ccc[nH]2)CC1)c1ccccc1 (stereo not shown) [Example 98, 1-[2-Hydroxy-2-(2-pyrrol-2-yl)ethyl]-4-benzamidopiperidine] | hypotensive activity | 
